Results on five compounds are retold here after patent US20220356164A1, “2-AMINOSELENOPHEN COMPOUNDS WITH ANTI-DRUG RESISTANT BACTERIA ACTIVITY AND A METHOD OF PREPARING THE SAME” (ZHUHAI JINAN SELENIUM SOURCE NANOTECHNOLOGY CO., LTD., priority 2021, published 2022).

Holding throughout (format): cell-based
Assay [1] deals with methicillin-resistant Staphylococcus aureus MRSA 18-575. The assay can be described thus: micro broth dilution MIC, MRSA 18-575. To be noted: read-out: The minimum inhibitory concentration, MRSA 18-575. From the text:
(§1) Using micro broth dilution method, with ceftazidime and vancomycin as positive controls, test the minimum inhibitory concentration (MIC) of compounds 9, 11, and 14.
(§2) The experimental strains included drug-resistant gram-positive bacteria: methicillin-resistant Staphylococcus aureus MRSA 18-575, 18-596; drug-resistant gram-negative bacteria: multi-drug-resistant Pseudomonas aeruginosa MDR-PA 18-126, 18-756. The experimental strains were all donated by Huashan Hospital Affiliated to Fudan University (Fudan University Antibiotic Research Institute), and used after being identified by conventional methods.
(§3) The specific steps are as follows:
(§4) Preparation of MHB medium: Weigh 20.0 g of MHB medium, add it to 1L of distilled water, heat and boil until it is completely dissolved, divide it into conical flasks, autoclave at 121° C. for 15 minutes, and set aside.
(§5) Cultivate the experimental strains to the logarithmic growth phase: under aseptic conditions, inoculate the experimental strains into 100 mL of MHB medium, and place them in a constant temperature and humidity incubator at 37° C. for 20-22 hours for use.
(§6) Preparation of stock solution: Weigh the sample to be tested and dissolve it with 1% DMSO solution to prepare a stock solution with a concentration of 2560 μg/mL; weigh the positive control substance and dissolve it with sterile distilled water to prepare a stock solution with a concentration of 2560 μg/mL.
(§7) Bacterial suspension preparation: Under aseptic conditions, the experimental strains cultured to the logarithmic growth phase are calibrated to 0.5 McDonald's unit turbidity standard with MHB medium and diluted at a ratio of […] to prepare a concentration of 10^6 CFU/mL Bacterial suspension, spare.
(§8) Stock solution dilution and inoculation of experimental strains: under aseptic conditions, dilute the stock solution to a solution of 256 μg/mL. Take a sterile 96-well plate, add 100 μL of MHB medium to each well except for wells 1-3; add 100 μL of positive control solution to well 2 and 100 μL of compound sample solution to wells 3 and 4; Mix the sample solution in the well with the culture medium, and then pipet 100 μL to the fifth well. After mixing, pipet 100 μL to the sixth well, and then dilute to the tenth well by successive times, and then take 100 μL from the tenth well and discard it. The 11th well is a growth control without drugs; then, add 100 μL of the above-prepared bacterial suspension to each well, so that the final bacterial concentration in each well is 5×10^5 CFU/mL; at this point, the positive control concentration is 128 μg/mL, the concentration of the sample solution is 128, 64, 32, 16, 8, 4, 2, 1 μg/mL.
(§9) Incubation: Cover the 96-well plate that has been inoculated with experimental strains and place it in a constant temperature and humidity box at 37° C. for 20-22 hours.
(§10) Record the results as shown in FIGS. 1 to 10 (the holes are in order from left to right corresponding to positive, 128, 64, 32, 16, 8, 4, 2, 1, negative) and Table 1.
A general note: Dilution methods test growth across graded concentrations, often in twofold steps.

For assay [2], the system named is methicillin-resistant Staphylococcus aureus MRSA 18-596. In words: micro broth dilution MIC, MRSA 18-596.
Text: as §1, §2, §3, §4, §5, §6, §7, §8, §9, §10

In assay [3] the test system is multi-drug-resistant Pseudomonas aeruginosa MDR-PA 18-126. In words: micro broth dilution MIC, MDR-PA 18-126.
Text: as §1, §2, §3, §4, §5, §6, §7, §8, §9, §10

Assay [4] relates to multi-drug-resistant Pseudomonas aeruginosa MDR-PA 18-756. The assay can be described thus: micro broth dilution MIC, MDR-PA 18-756. The note with it: read-out: The minimum inhibitory concentration, MDR-PA 18-756.
Text: as §1, §2, §3, §4, §5, §6, §7
as §8, with “1 μg/mL. […]” for “1 μg/mL.”

The mark [5] stands for this setting: MRSA, read-out: The minimum inhibitory concentration, MRSA 18-596.
[6] abbreviates: read-out: The minimum inhibitory concentration, MDR-PA 18-126.

Converted amounts (≈) assume the structure as drawn. Like-named read-outs stand apart in the source and are kept apart here.

With `CC(C)(O/N=C(\C(=O)N[C@@H]1C(=O)N2C(C(=O)[O-])=C(C[n+]3ccccc3)CS[C@H]12)c1csc(N)n1)C(=O)O` [Ceftazidime, reference compound], the MIC is 128 µg/mL (≈ 234 µM) in assay [1] (strain MRSA 18-575, MHB medium, 37° C., 20-22 hours); 128 µg/mL (≈ 234 µM) in assay [2] (strain MRSA 18-596, MHB medium, 37° C., 20-22 hours, read-out: The minimum inhibitory concentration, MRSA 18-596); 128 µg/mL (≈ 234 µM) in assay [3] (strain MDR-PA 18-126, MHB medium, 37° C., 20-22 hours, read-out: The minimum inhibitory concentration, MDR-PA 18-126); 128 µg/mL (≈ 234 µM) in assay [4] (strain MDR-PA 18-756, MHB medium, 37° C., 20-22 hours).

As for `N#Cc1c(N)[se]c2c1CCCC2` [Compound 9], the MIC in assay [1] (MRSA) was 128 µg/mL (≈ 569 µM); in assay [2] (setting [5]) it was 128 µg/mL (≈ 569 µM); in assay [3] (setting [6]) it was over 128 µg/mL; in assay [4] it was 128 µg/mL (≈ 569 µM).

On to `N#Cc1c(N)[se]c2c1CCCCC2` [Compound 11], for which the MIC amounted to 32 µg/mL (≈ 134 µM) in assay [1] (MRSA); 16 µg/mL (≈ 66.9 µM) in assay [2] (MRSA, read-out: MIC against drug-resistant gram-positive bacteria MRSA); 16 µg/mL (≈ 66.9 µM) in assay [2] (setting [5]); 64 µg/mL (≈ 268 µM) in assay [3] (read-out: MIC against MDR-PA); 64 µg/mL (≈ 268 µM) in assay [3] (setting [6]); 64 µg/mL (≈ 268 µM) in assay [4].

As for `CCCCc1c[se]c(N)c1C#N` [Compound 14], the MIC in assay [1] (MRSA) was 128 µg/mL (≈ 563 µM); in assay [2] (setting [5]) it was 64 µg/mL (≈ 282 µM); in assay [3] (setting [6]), 64 µg/mL (≈ 282 µM); in assay [4], over 128 µg/mL.

Consider `CN[C@H](CC(C)C)C(=O)N[C@H]1C(=O)N[C@@H](CC(N)=O)C(=O)N[C@H]2C(=O)N[C@H]3C(=O)N[C@H](C(=O)N[C@H](C(=O)O)c4cc(O)cc(O)c4-c4cc3ccc4O)[C@H](O)c3ccc(c(Cl)c3)Oc3cc2cc(c3O[C@@H]2O[C@H](CO)[C@@H](O)[C@H](O)[C@H]2O[C@H]2C[C@](C)(N)[C@H](O)[C@H](C)O2)Oc2ccc(cc2Cl)[C@H]1O` [Vancomycin, reference compound], for which the MIC in assay [1] (MRSA) and in assay [2] (setting [5]) was 512 µg/mL (≈ 353 µM) each time.
